These results are taken from ChEMBL document CHEMBL1159225, “Oceanapamine, a sesquiterpene alkaloid from the Philippine sponge Oceanapia sp” (J Nat Prod, 1995).

Assay type in all cases: functional, organism-based
In one assay the test system is Bacillus subtilis. Briefly: Antimicrobial activity against Bacillus subtilis at 25 ug/disk by standard disk assay.
The test system of another assay is Escherichia coli. Briefly: Antimicrobial activity against Escherichia coli at 25 ug/disk by standard disk assay.
The next assay deals with Pseudomonas aeruginosa. Briefly: Antimicrobial activity against Pseudomonas aeruginosa at 100 ug/disk by standard disk assay.
A further assay relates to Candida albicans. Briefly: Antifungal activity against Candida albicans at 50 ug/disk by standard disk assay.
A further assay deals with Staphylococcus aureus. As to the kind of experiment: Antimicrobial activity against Staphylococcus aureus at 50 ug/disk by standard disk assay.

Molecules are shown by their SMILES. The source made the active and inactive calls. No cut-off for these calls is given here.

In the case of `C=C1CCCC(C)(C)[C@H]1CC/C(C)=C/Cc1ncn2c1CCNC2=O`, the outcome with Bacillus subtilis, with Escherichia coli, with Pseudomonas aeruginosa, in the assay with Candida albicans and in the assay on Staphylococcus aureus was inactive.

With `C=C1CCCC(C)(C)[C@H]1CC/C(C)=C/Cc1nc[nH]c1CCN`, the outcome in the assay on Bacillus subtilis, in the assay on Escherichia coli, in the assay on Pseudomonas aeruginosa, in the assay on Candida albicans and in the assay with Staphylococcus aureus was Active.
